Source: patent US20100144853A1, “NOVEL COMBINED ADMINISTRATION” (priority 2008, published 2010)

Experiment: Stability of COMPOUND A in human intestinal fluids, Procedure F (suspension, no separation of excess), first table
Assay type: in vitro ADME
Settings: summary of Example 5
Method: Fasted Intestinal Fluids: the fluids from 4 different subjects were collected with a naso-jejunal tube after fasting overnight and pooled.
Procedure F (COMPOUND A and COMPOUND B in suspension, the degradation immediately stopped without separation of excess compound): Stock K=COMPOUND B suspension (0.5 mg/mL)
Dilute 1 part of COMPOUND B suspension (stock J) with 3 parts of FeSSIF pH6.5 solution.
500 μL of freshly thawed intestinal fluids (fasted and stimulated state) were added to 1.2 mg of COMPOUND A in a 1 mL glass vial. The suspended compound was stirred for 15 min at 37° C. to obtain wetting and a homogenous suspension. In parallel, 4 glass vials were prepared with 20 μL of a COMPOUND B suspension at different concentrations. These concentrations were obtained by mixing FeSSIF pH6.5 and COMPOUND B suspension (stock K) in different ratios, respectively 1:[…], 1:1, 0:1 to obtain 0, 1, 2 and 4% related to COMPOUND A. At time zero, 100 μL of COMPOUND A suspension preincubated at 37° C. were added to the 20 μL COMPOUND B suspension. The mixture was incubated at 37° C. with gentle stirring. After 15 min and 60 min, the reaction was stopped by mixing a 50 μL sample with 150 μL isopropanol and centrifuged at 5′000 rpm during 5 min. The clear supernatant was analyzed for the hydrolysis product and its oxidized form by HPLC.

For `CCCCCCCCCCC[C@@H](C[C@@H]1OC(=O)[C@H]1CCCCCC)OC(=O)[C@H](CC(C)C)NC=O` [COMPOUND B, 1-(3-hexyl-4-oxo-oxetan-2-yl)tridecan-2-yl 2-formyl-amino-4-methyl-pentanoate, reference compound], the “Effect of COMPOUND B on gastrointestinal enzyme induced hydrolytic degradation of COMPOUND A” value was “efficiently prevents gastrointestinal enzyme induced hydrolytic degradation of COMPOUND A”.
